Molecules are shown by their SMILES. Numbers after ± are expanded uncertainties.

For this series the following is noted: Liquid, Dynamic light scattering.

In the case of `CCCCCCCCCCCC` [dodecane], the thermal diffusivity by setting is: (423.73 K) 5.83e-08 ± 3e-09 m2/s; (448.23 K) 5.23e-08 ± 2.2e-09 m2/s; (473.1 K) 4.87e-08 ± 2e-09 m2/s; (498.16 K) 4.58e-08 ± 3.4e-09 m2/s; (523.18 K) 4.25e-08 ± 2.6e-09 m2/s.
As for `CCCCCCCCCCCCCCCCCCCCCCCCCCCCCCCCCCCCCCCC` [tetracontane], the thermal diffusivity amounted to 6.57e-08 ± 3.4e-09 m2/s (448.09 K), 6.73e-08 ± 4.3e-09 m2/s (448.57 K) and 6.86e-08 ± 8e-09 m2/s (473.26 K).

The record behind these values is the NIST ThermoML archive (doi:10.1021/acs.jced.5b00986).
